# Assay results reported in patent publication US20120321609A1, “METHOD OF TREATING PSYCHOLOGICAL DISORDERS” (priority 2011, published 2012).
# How the values were obtained:
# 5-HT2AR [1] = biological target: T1, 5-HT2AR (Homo sapiens, UniProt P28223); assay: 5-HT-stimulated inositol phosphate formation in HEK 293 cells co-expressing CRFR2 and 5-HT2AR; assay type: cell-based; settings: CRF 500 nM pretreatment 30 min
# T1 construct: expressed in transfected cells; host or cells: HEK 293
# 5-HT2AR [2] = assay: Biotinylation of cell surface FLAG-5-HT2AR in HEK 293 cells; assay type: cell-based, human; settings: CRF 500 nM pretreatment 30 min
# Protocol: HEK 293 cells transiently expressing wild-type and truncated FLAG-5-HT2AR and HA-CRFR1 were seeded into 100 mm dishes and pre-incubated for 30 minutes in HBSS. […] Cell surface receptors were labeled on ice with biotin (1 mg/ml) for 1 hour. Following labeling, cells were washed 3 times with 10 mM glycine and then 2 times with HBSS, lysed and equal amounts of total protein were incubated with neutravidin beads for 2 hours with rotation at 4° C. Beads were then washed 3 times with lysis buffer and one time with PBS. Proteins were eluted from beads by addition of 50 ul of SDS loading buffer. Samples were resolved by SDS-PAGE, transferred to nitrocellulose membrane and subsequently immunoblotted as described above with rabbit polyclonal FLAG antibody.
# mouse neuronal cultures = assay: Inositol phosphate formation in mouse cortical neuronal cultures; assay type: cell-based; settings: CRF 500 nM pretreatment 30 min; 5-HT 50 μM
# HA-CRFR1 = biological target: T2, HA-CRFR1 (Homo sapiens, UniProt P34998); assay: Receptor endocytosis by flow cytometry in HEK 293 cells; assay type: cell-based; settings: 500 nM CRF for 30 min at 37° C.; cells expressing only wild-type CRFR1
# T2 construct: expressed in transfected cells; host or cells: HEK 293
# T2 sequence (P34998 24-415): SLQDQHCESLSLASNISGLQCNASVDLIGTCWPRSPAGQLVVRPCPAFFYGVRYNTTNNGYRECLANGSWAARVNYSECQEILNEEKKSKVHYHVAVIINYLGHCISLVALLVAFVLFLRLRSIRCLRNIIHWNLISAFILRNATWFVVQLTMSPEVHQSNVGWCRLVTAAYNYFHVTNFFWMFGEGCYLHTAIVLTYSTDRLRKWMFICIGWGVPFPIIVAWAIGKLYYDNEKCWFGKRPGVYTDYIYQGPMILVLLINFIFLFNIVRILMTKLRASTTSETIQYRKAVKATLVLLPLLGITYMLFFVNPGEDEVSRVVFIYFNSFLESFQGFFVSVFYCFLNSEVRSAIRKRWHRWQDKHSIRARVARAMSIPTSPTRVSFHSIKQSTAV
# Protocol: Cells were seeded on 10 cm dishes at 70-80% density 24 h prior to transfection. Transfection was performed using a modified calcium phosphate method, as described previously (Ferguson et al. (2004) Methods Mol. Biol. 237, 121-126). 1 μg of each construct was used for each transfection, with the exception that 3 μg of plasmid cDNA was used for all shRNA constructs. Empty pcDNA3.1 vector was used to equalize the total amount of plasmid cDNA used to transfect cells. 18 h post-transfection, cells were washed with phosphate buffered saline (PBS) and re-suspended with Trypsin 0.25% EDTA. Cells were then reseeded for experimentation. All experiments were conducted approximately 48 h after the initial transfection, with exception of transfections involving SAP97 shRNA, which were conducted 72 h after initial transfection to optimize the knockdown of endogenous SAP97, as confirmed by Western blotting.
# Following transfection, HEK 293 cells were re-seeded into 12-well plates. […] Cells were washed with cold HBSS and treated with mouse anti-HA antibody (1:500) for 45 min on ice. […] Samples were run on a FACSCalibur cytometer using BD CellQuest Pro software until 10,000 cells were counted. The geometric mean of fluorescence was determined using FlowJo analysis software, with less fluorescence corresponding to less CRFR1 on the membrane.
# 5-HT2AR [3] = biological target: T1, 5-HT2AR; assay: 5-HT-stimulated inositol phosphate formation in HEK 293 cells transfected with FLAG-5-HT2AR and HA-CRFR1; assay type: cell-based
# mice = assay: Elevated plus maze test (anxiety-related behaviour); assay type: in vivo, mouse; settings: DOI 0.15 mg/kg i.p.
# Protocol: Male CD-1 mice were obtained from Charles River Canada (St. Constant, Quebec) at 50-60 days of age, and were acclimatized to the laboratory for approximately 30 days before serving as experimental subjects. Mice were housed four per cage, until the time of surgery, after which they were housed individually. The vivarium was maintained on a 12-h light/dark cycle in a temperature (21° C.) controlled room with food and water freely available. Mice were anesthetized using isoflurane and stereotaxic surgery (David Kopf Instruments Model 940) was performed to install a cannulae into the medial prefrontal cortex. A Guide cannulae (Plastics One In), situated according to the mouse atlas of Franklin and Paxinos at Lateral=0.32 mm, D/V=2.25 mm, A/P=+2.68 mm. A dummy cannula, was inserted flush with guide. Approximately 1 week after behavioral testing mice were perfused with 4% paraformaldehyde. Brains were subsequently sectioned at 14 microns and stained with Cresyl violet for probe placement verification. Only the data from mice with correct probe placements were used in the analysis of the behavioral tests.
# Drug diffusion was permitted for 5 min, and then after a further 5 min period mice were injected intraperotineally with DOI (Sigma) at a dose of 0.15 mg/kg or saline. Behavioral testing was conducted 15 min after the DOI treatment. In a second experiment the procedure was identical to that of the preceding study, except that mice were pretreated i.p. with either vehicle or 0.25 mg/kg of M100907 in a volume of 0.3 ml immediately prior to the DOI treatment. As in the preceding study mice were then tested in the elevated plus maze test (n=6-8)/group. Once again, data were obtained from videotapes and the researcher was blind as to the treatments mice had received.
# In an initial test, mice were placed in a 45×45 cm open field, with an inner square of 21×24×24 cm., for a 5 min period, during which the time to enter the center area, and the total time spent in the center portion of the arena was recorded. The plus maze test was then conducted 1 min after the open field assessment. Mice were individually placed in one of the enclosed arms of a plus-maze and the behavior of the animals was recorded over a 5 min period by a ceiling-mounted video camera. The amount of time spent in each of the arms, the number of arm entries (an arm entry was defined as all four of the paws being placed in an arm of the plus-maze). The elevated plus-maze had two arms enclosed by 21 cm high walls; whereas the remaining two arms were open (arms were 24.8 cm long×7.7 cm wide). The maze was situated in a dimly lit room, such that the closed arms were darkened, whereas open arms were somewhat illuminated. All behavioural experiments were blinded. All experiments complied with the guidelines set by the Canadian Council on Animal Care and were approved by the Carleton University Animal Care Committee.
# [4] = first experiment, CRF 1.5 μg into medial prefrontal cortex
# [5] = second experiment (M100907 study), CRF 1.5 μg mPFC, M100907 0.25 mg/kg i.p.
# T1 sequence (P28223 whole entry): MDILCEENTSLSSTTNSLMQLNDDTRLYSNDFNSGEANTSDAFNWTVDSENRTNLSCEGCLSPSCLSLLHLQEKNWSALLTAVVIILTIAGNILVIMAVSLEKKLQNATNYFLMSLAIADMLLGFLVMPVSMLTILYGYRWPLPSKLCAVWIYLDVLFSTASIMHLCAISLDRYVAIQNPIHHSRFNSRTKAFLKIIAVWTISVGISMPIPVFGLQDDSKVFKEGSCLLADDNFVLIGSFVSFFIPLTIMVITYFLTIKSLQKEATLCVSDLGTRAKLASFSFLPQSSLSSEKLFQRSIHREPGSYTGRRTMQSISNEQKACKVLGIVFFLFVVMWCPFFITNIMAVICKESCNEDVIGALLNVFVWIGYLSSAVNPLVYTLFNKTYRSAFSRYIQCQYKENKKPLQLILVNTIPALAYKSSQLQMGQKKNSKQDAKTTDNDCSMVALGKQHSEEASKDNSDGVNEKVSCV
# T1 sequence (P28223 whole entry, the tested form may be a part): as the sequence (P28223 whole entry) above
substance,measurement,setting,value
CRF: 41 amino acid peptide that activates the HPA axis; agonist of CRF receptors,effect of pretreatment on 5-HT2AR-stimulated inositol phosphate responses,5-HT2AR [1],did not increase
same,increase in cell surface expression of the 5-HT2AR,5-HT2AR [2],3.7±1.8 fold
same,effect of pretreatment on 5-HT-stimulated [3H]-myo-inositol conversion to inositol phosphate,mouse neuronal cultures,significantly increase
same,loss of cell surface HA-CRFR1,HA-CRFR1,24±4%
same,increase in maximum efficacy (EMAX) for 5-HT2AR-stimulated inositol phosphate formation,"5-HT2AR [3]; CRF pretreatment 500 nM for 30 min, cells expressing 5-HT2AR along with CRFR1",40±4.7%
same,"effect of pretreatment on 5-HT dose-response curve for inositol phosphate formation, 5-HT2AR","5-HT2AR [3]; HEK 293 cells expressing 5-HT2AR in the absence of CRFR1, CRF 500 nM 30 min",had no effect
same,latency to enter an open arm of the plus maze,mice; [4],had no effect
same,number of entries into the closed arms of the plus maze,mice; [4],did not vary
same,number of entries onto the open arms of the plus maze,mice; [4],had no effect
same,frequency of open arm entries in the plus maze,mice; [5],neither CRF nor DOI alone affected the frequency of open arm entries
same,latency to enter the open arms of the plus maze,mice; [5],"moderate, but statistically significant increase"
same,time spent in the closed arms of the plus maze,mice; [5],unaffected
same,entries to the closed arms of the plus maze,"mice; second experiment (M100907 study), CRF 1.5 μg mPFC, M100907 0.25 mg/kg i.p., relative to vehicle",increased closed arm entries
